Laboratory results from ChEMBL document CHEMBL1201862, “PubChem BioAssay data set” (2004).
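In this assay, cells in 96-well plates receive the compound at five concentrations for 48 hours. Endpoints are linearly interpolated between the surrounding concentrations. GI50: concentration for 50% inhibition of growth.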 Activity calls are given as the source filed them. No stated cut-off is given here; in the data, active = GI50 up to about 1.1 µM and inactive = higher.

Key:
Test in all cases: NCI-60 cell line screen, 48 h
COLO 205 = tested on: COLO 205
LOX IMVI = tested on: LOX IMVI
SK-MEL-5 = tested on: SK-MEL-5
SF-268 = tested on: SF-268
U-251 = tested on: U-251
SN12C = tested on: SN12C
RPMI-8226 = tested on: RPMI-8226
786-0 = tested on: 786-0
CCRF-CEM = tested on: CCRF-CEM
A549 = tested on: A549
T47D = tested on: T47D
NCI-H460 = tested on: NCI-H460
OVCAR-4 = tested on: OVCAR-4
UACC-62 = tested on: UACC-62
SF-295 = tested on: SF-295
MOLT-4 = tested on: MOLT-4
MDA-MB-231 = tested on: MDA-MB-231
SF-539 = tested on: SF-539
EKVX = tested on: EKVX
OVCAR-8 = tested on: OVCAR-8
HT-29 = tested on: HT-29
SNB-19 = tested on: SNB-19
MDA-MB-435 = tested on: MDA-MB-435
UO-31 = tested on: UO-31
SK-MEL-28 = tested on: SK-MEL-28
SK-OV-3 = tested on: SK-OV-3
TK-10 = tested on: TK-10
IGROV-1 = tested on: IGROV-1
KM12 = tested on: KM12
HCT-15 = tested on: HCT-15
A498 = tested on: A498
MDA-N = tested on: MDA-N
HCC 2998 = tested on: HCC 2998
MCF7 = tested on: MCF7
HCT-116 = tested on: HCT-116
NCI/ADR-RES = tested on: NCI/ADR-RES
Hs-578T = tested on: Hs-578T
SNB-75 = tested on: SNB-75
CAKI-1 = tested on: CAKI-1
HL-60 = tested on: HL-60
DU-145 = tested on: DU-145
OVCAR-5 = tested on: OVCAR-5
SW-620 = tested on: SW-620
PC-3 = tested on: PC-3
M14 = tested on: M14
K562 = tested on: K562
HOP-92 = tested on: HOP-92
SK-MEL-2 = tested on: SK-MEL-2
OVCAR-3 = tested on: OVCAR-3
ACHN = tested on: ACHN
UACC-257 = tested on: UACC-257
BT-549 = tested on: BT-549
HOP-62 = tested on: HOP-62
RXF 393 = tested on: RXF 393
NCI-H522 = tested on: NCI-H522
Malme-3M = tested on: Malme-3M
NCI-H226 = tested on: NCI-H226
NCI-H23 = tested on: NCI-H23

SMILES: CSc1ccc(C=C2N=C(c3ccccc3)N(c3cc(C(=O)c4ccccc4)ccc3N3C(=O)/C(=C/c4ccc(SC)cc4)N=C3c3ccccc3)C2=O)cc1
- GI50 (COLO 205): 56.9 µM (inactive)
- GI50 (LOX IMVI): 32.1 µM (inactive)
- GI50 (SK-MEL-5): 37.6 µM (inactive)
- GI50 (SF-268): 53.2 µM (inactive)
- GI50 (U-251): 27 µM (inactive)
- GI50 (SN12C): 76.6 µM (inactive)
- GI50 (RPMI-8226): 25.4 µM (inactive)
- GI50 (786-0): 69.3 µM (inactive)
- GI50 (CCRF-CEM): 5.69 µM (inactive)
- GI50 (A549): 43.5 µM (inactive)
- GI50 (T47D): 34.5 µM (inactive)
- GI50 (NCI-H460): 51.2 µM (inactive)
- GI50 (OVCAR-4): 40 µM (inactive)
- GI50 (UACC-62): 44.9 µM (inactive)
- GI50 (SF-295): 44.1 µM (inactive)
- GI50 (MOLT-4): 23.7 µM (inactive)
- GI50 (MDA-MB-231): 80.5 µM (inactive)
- GI50 (SF-539): 22.6 µM (inactive)
- GI50 (EKVX): > 100 µM (inactive)
- GI50 (OVCAR-8): 39.4 µM (inactive)
- GI50 (HT-29): 81.3 µM (inactive)
- GI50 (SNB-19): > 100 µM (inactive)
- GI50 (MDA-MB-435): 31.8 µM (inactive)
- GI50 (UO-31): 48.4 µM (inactive)
- GI50 (SK-MEL-28): > 100 µM (inactive)
- GI50 (SK-OV-3): > 100 µM (inactive)
- GI50 (TK-10): 51.1 µM (inactive)
- GI50 (IGROV-1): 81.3 µM (inactive)
- GI50 (KM12): 40 µM (inactive)
- GI50 (HCT-15): 61.4 µM
- GI50 (A498): 71.8 µM (inactive)
- GI50 (MDA-N): 93.1 µM (inactive)
- GI50 (HCC 2998): 46 µM (inactive)
- GI50 (MCF7): > 100 µM (inactive)
- GI50 (HCT-116): 59.3 µM (inactive)
- GI50 (NCI/ADR-RES): 46 µM (inactive)
- GI50 (Hs-578T): 52.7 µM (inactive)
- GI50 (SNB-75): 16 µM (inactive)
- GI50 (CAKI-1): 56.1 µM (inactive)
- GI50 (HL-60): 8.04 µM (inactive)
- GI50 (DU-145): 49.9 µM (inactive)
- GI50 (OVCAR-5): > 100 µM (inactive)
- GI50 (SW-620): > 100 µM (inactive)
- GI50 (PC-3): 40 µM (inactive)
- GI50 (M14): 76.9 µM (inactive)
- GI50 (K562): 46 µM (inactive)
- GI50 (HOP-92): 80.7 µM (inactive)
- GI50 (SK-MEL-2): 36.1 µM (inactive)
- GI50 (OVCAR-3): 22.2 µM (inactive)
- GI50 (ACHN): 52.4 µM (inactive)
- GI50 (UACC-257): 89.9 µM (inactive)
- GI50 (BT-549): 45.6 µM (inactive)
- GI50 (HOP-62): 79.8 µM (inactive)

SMILES: COc1c(-c2nc3ccc(N4CCN(C)CC4)nc3[nH]2)cc(OC)c2c1nc(COC(C)=O)n2C
- GI50 (COLO 205): 92.7 µM (inactive)
- GI50 (LOX IMVI): > 100 µM (inactive)
- GI50 (SK-MEL-5): > 100 µM (inactive)
- GI50 (SF-268): > 100 µM (inactive)
- GI50 (U-251): 97.1 µM (inactive)
- GI50 (SN12C): > 100 µM (inactive)
- GI50 (786-0): > 100 µM (inactive)
- GI50 (A549): > 100 µM (inactive)
- GI50 (T47D): > 100 µM (inactive)
- GI50 (OVCAR-4): 89.9 µM (inactive)
- GI50 (UACC-62): > 100 µM (inactive)
- GI50 (SF-295): > 100 µM (inactive)
- GI50 (MOLT-4): > 100 µM (inactive)
- GI50 (MDA-MB-231): 51.3 µM (inactive)
- GI50 (EKVX): > 100 µM (inactive)
- GI50 (OVCAR-8): > 100 µM (inactive)
- GI50 (HT-29): 56.1 µM (inactive)
- GI50 (SNB-19): 90.2 µM (inactive)
- GI50 (MDA-MB-435): 71.8 µM (inactive)
- GI50 (RXF 393): 19 µM (inactive)
- GI50 (UO-31): > 100 µM (inactive)
- GI50 (SK-OV-3): > 100 µM (inactive)
- GI50 (TK-10): < 0.01 µM (active)
- GI50 (IGROV-1): > 100 µM (inactive)
- GI50 (KM12): 39.4 µM (inactive)
- GI50 (HCT-15): > 100 µM
- GI50 (A498): > 100 µM (inactive)
- GI50 (MDA-N): > 100 µM (inactive)
- GI50 (MCF7): 65.3 µM (inactive)
- GI50 (HCT-116): 86.3 µM (inactive)
- GI50 (NCI/ADR-RES): > 100 µM (inactive)
- GI50 (Hs-578T): > 100 µM (inactive)
- GI50 (NCI-H522): > 100 µM (inactive)
- GI50 (Malme-3M): > 100 µM (inactive)
- GI50 (CAKI-1): > 100 µM (inactive)
- GI50 (DU-145): 22.6 µM (inactive)
- GI50 (OVCAR-5): > 100 µM (inactive)
- GI50 (PC-3): 94.8 µM (inactive)
- GI50 (M14): > 100 µM (inactive)
- GI50 (K562): > 100 µM (inactive)
- GI50 (HOP-92): > 100 µM (inactive)
- GI50 (SK-MEL-2): 33 µM (inactive)
- GI50 (NCI-H226): > 100 µM (inactive)
- GI50 (OVCAR-3): > 100 µM (inactive)
- GI50 (ACHN): > 100 µM (inactive)
- GI50 (UACC-257): 45.3 µM (inactive)
- GI50 (BT-549): > 100 µM (inactive)
- GI50 (HOP-62): > 100 µM (inactive)
- GI50 (NCI-H23): > 100 µM (inactive)
